According to BigSolDB 2.1:

O=C1CCC(=O)CC1
solubility (mole fraction)
Details | in acetone | in acetonitrile | in cyclohexane | in ethanol | in ethyl acetate | in isopropanol | in methanol | in methyl acetate | in n-butanol | in n-propanol
278.15 K | 0.177 | 0.241 | – | 0.0215 | 0.093 | 0.018 | 0.112 | 0.156 | 0.0113 | 0.0096
283.15 K | 0.21 | 0.273 | 0.000676 | 0.0301 | 0.117 | 0.0274 | 0.141 | 0.188 | 0.0181 | 0.0162
288.15 K | 0.248 | 0.311 | 0.000868 | 0.0479 | 0.146 | 0.0414 | 0.174 | 0.227 | 0.0293 | 0.0253
293.15 K | 0.29 | 0.35 | 0.00111 | 0.0777 | 0.179 | 0.0681 | 0.221 | 0.27 | 0.0436 | 0.0409
298.15 K | 0.338 | 0.391 | 0.00141 | 0.121 | 0.223 | 0.107 | 0.266 | 0.321 | 0.0654 | 0.0638
303.15 K | 0.391 | 0.434 | 0.00182 | 0.183 | 0.271 | 0.165 | 0.324 | 0.377 | 0.0954 | 0.0996
308.15 K | 0.454 | 0.481 | 0.00234 | 0.265 | 0.332 | 0.254 | 0.393 | 0.441 | 0.145 | 0.157
313.15 K | 0.52 | 0.533 | 0.00293 | 0.375 | 0.404 | 0.36 | 0.461 | 0.515 | 0.222 | 0.24
